Test results taken from patent publication US8906351B2, “2,2′-furoin derivatives and use thereof to light skin” (Merck Patent GmbH, priority 2010, dated 2014).

Key:
[1] = system: normal human epidermal melanocytes (NHEM); experiment: Melanogenesis assay with human primary cells; assay type: cell-based; details: 10 days incubation, DMSO control = 100, concentration not given
Experimental: An ampoule of normal human epidermal melanocytes (NHEM, Promocell) is thawed and divided into further bottles depending on the number of their duplicates. After 2 to 3 weeks, between 750,000 and one million cells are transferred into T25 bottles with 5 ml of full medium. After 24 hours, the medium is removed and replaced by corresponding substance dilutions or controls. The overall duration of the incubation of the various test substances on the cells is 10 days. During these 10 days, the substance dilutions or controls are replaced every 2-3 days. After 10 days, the melanocytes are harvested. 500 μl of trypsin/EDTA is added to the cells and immediately removed again by suction. The cells are subsequently taken up in medium, counted and centrifuged off. The supernatant is removed, the pellet is washed with DPBS and centrifuged again. A photo of this pellet is taken. The pellet is then taken up in 1 ml of NaOH (1 M) and incubated in a shaker at 80° C. for one hour. The solution, cooled to room temperature, is pipetted into a 96-well plate (4×200 μl), and the absorption at 405 nm is measured. The values measured are subsequently plotted in percent against the control.

[2] = system: B16V mouse melanoma cells; experiment: B16V mouse melanoma cell test, melanin content after alpha-MSH stimulation; assay type: cell-based; details: DMSO blank = 100, DMSO + alpha-MSH = 235
Experimental: B16V mouse melanoma cells (manufacturer: DSMZ; Article No.: ACC370) are transferred into RPMI medium (Invitrogen, Article No.: 31870), to which 10% of FBS (foetal bovine serum; Invitrogen, Article No.: 10499044), 2 mM L-glutamine (Invitrogen, Article No: 25030) and 1 mM sodium pyruvate (Invitrogen, Article No.: 11360) had additionally been added, and incubated at 37° C. and 5% CO2 for 72 h. The medium is separated off, and the cells are washed once with 10 ml of DPBS (Dulbecco's phosphate-buffered salines; Invitrogen, Article No.: 14190), and the medium is subsequently removed by suction. 1 ml of HyQtase cell detachment solution (Hyclone, Article No.: SV30030.01) is added to the cells. The bottle is swirled a number of times, and the HyQtase cell detachment solution is subsequently removed by suction. The cells are then incubated in the incubator at 37° C. and 5% CO2 for 5 min. The cells are taken up in the modified RPMI medium (see above), and the cell count is determined. To this end, the cells are stained with Trypan Blue and counted in a Neubauer counting chamber. The cells are subsequently sown out again in the modified RPMI medium (see above) in a defined cell count of 80,000 cells per well (6-well clear plate, TCT, PS (Nunc)).
The cells are incubated at 37° C. and 5% CO2 for 24 h, the medium is then removed. 1980 μl of the substance dilution are subsequently added. […]
After the final incubation period, the medium is removed by suction, and the cells are washed with 1000 μl of DPBS (Invitrogen, Article No.: 14190). […] The cell count is subsequently determined. To this end, the cells are stained with Trypan Blue and counted in a Neubauer counting chamber. […] Four times 200 μl per cup (as quadruple determination) are subsequently pipetted into a 96-well plate (VWR, Article No.: 4100636981), and the absorption at a wavelength of 405 nm is determined (Safire, Tecan). The content of melanin can be determined in this way by means of a calibration line.

SMILES | Relative melanin content in % [1] | Relative melanin content in % ([2]; 0.05 mM + alpha-MSH (10^-8 M)) | Relative melanin content in % ([2]; 0.1 mM + alpha-MSH (10^-8 M)) | Relative melanin content in % ([2]; 1 mM + alpha-MSH (10^-8 M))
O=C(c1ccco1)C(O)c1ccco1 (stereo not shown) [2,2′-Furoin, 2,2′-furoin] | 72.9% | 88.0% | 63.1% | –
O=c1cc(CO)occ1O [Kojic acid, reference compound] | – | – | – | 96%
